Laboratory results from patent publication US11987586B1 (TAKEDA PHARMACEUTICAL COMPANY LIMITED, priority 2022, dated 2024).

Target: T1, human OX2 receptor (Homo sapiens, UniProt O43614)
T1 construct: expressed in transfected cells
T1 sequence (O43614 1-444): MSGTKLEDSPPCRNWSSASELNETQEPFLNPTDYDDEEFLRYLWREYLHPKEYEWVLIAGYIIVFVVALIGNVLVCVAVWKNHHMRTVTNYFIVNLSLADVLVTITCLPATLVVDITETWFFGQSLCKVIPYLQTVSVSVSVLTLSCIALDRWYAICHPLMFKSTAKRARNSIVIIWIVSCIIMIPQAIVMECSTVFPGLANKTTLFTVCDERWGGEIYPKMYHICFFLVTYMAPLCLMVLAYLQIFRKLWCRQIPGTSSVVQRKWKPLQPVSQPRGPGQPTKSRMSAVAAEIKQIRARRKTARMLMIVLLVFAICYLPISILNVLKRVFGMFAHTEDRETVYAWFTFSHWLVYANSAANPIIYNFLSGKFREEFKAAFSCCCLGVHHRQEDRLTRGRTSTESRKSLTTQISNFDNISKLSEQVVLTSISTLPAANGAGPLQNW
Assay: Measurement of orexin type 2 receptor agonist activity (calcium fluorescence, Fluo-4, FDSS)
Type: cell-based
Settings: 3 uM test compound; CHO cells expressing human OX2 receptor; DMSO = 0%, 10 nM orexin A (human) = 100%
Outline: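 CHO-K1 cells stably expressing human OX2 receptor (residues 1-444) were loaded with Fluo-4 AM plus probenecid. Calcium fluorescence after compound addition was recorded for 1 min 40 s. Activity (%) was scaled between DMSO (0%) and 10 nM orexin A final (100%).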

Row | OX2R agonist activity (3 uM, %) [%] | Structure (SMILES)
1 | 92 | Cc1c(-c2noc3cccc(-c4c(F)cccc4F)c23)c(=O)n2n1CC(NS(C)(=O)=O)C2 (single isomer, unassigned) [Example 340, N-{(2R*)-6-[4-(2,6-difluorophenyl)-1,2-benzoxazol-3-yl]-7-methyl-5-oxo-2,3-dihydro-1H,5H-pyrazolo[1,2-a]pyrazol-2-yl}methanesulfonamide]
2 | 108 | CCS(=O)(=O)N[C@@H]1CN2C(=O)N(c3noc4cccc(-c5ncc(F)cc5F)c34)CC[C@@H]2C1(F)F [Example 321, N-{(4aR,6R)-2-[4-(3,5-difluoropyridin-2-yl)-1,2-benzoxazol-3-yl]-5,5-difluoro-1-oxooctahydropyrrolo[1,2-c]pyrimidin-6-yl}ethanesulfonamide]
3 | 103 | CS(=O)(=O)N[C@@H]1CN2C(=O)N(c3noc4cccc(-c5ccccc5F)c34)CC[C@@H]2C1(F)F [Example 273, N-{(4aR,6R)-5,5-difluoro-2-[4-(2-fluorophenyl)-1,2-benzoxazol-3-yl]-1-oxooctahydropyrrolo[1,2-c]pyrimidin-6-yl}methanesulfonamide]
4 | 104 | CS(=O)(=O)N[C@@H]1Cn2c(cn(-c3noc4cc(CO)c(F)c(-c5c(F)cc(F)cc5F)c34)c2=O)C1(F)F [Example 185, N-{(6R)-7,7-difluoro-2-[5-fluoro-6-(hydroxymethyl)-4-(2,4,6-trifluorophenyl)-1,2-benzoxazol-3-yl]-3-oxo-2,5,6,7-tetrahydro-3H-pyrrolo[1,2-c]imidazol-6-yl}methanesulfonamide]
5 | 107 | Cc1cc2onc(N3CC[C@H]4N(C[C@@H](NS(C)(=O)=O)C4(F)F)C3=O)c2c(-c2c(F)cc(F)cc2F)n1 [Example 248, N-{(4aR,6R)-5,5-difluoro-2-[6-methyl-4-(2,4,6-trifluorophenyl)[1,2]oxazolo[4,5-c]pyridin-3-yl]-1-oxooctahydropyrrolo[1,2-c]pyrimidin-6-yl}methanesulfonamide]
6 | 115 | CS(=O)(=O)N[C@@H]1Cn2c(cn(-c3noc4nc(C5CC5)cc(-c5c(F)cccc5F)c34)c2=O)C1(F)F [Example 197, N-{(6R)-2-[6-cyclopropyl-4-(2,6-difluorophenyl)[1,2]oxazolo[5,4-b]pyridin-3-yl]-7,7-difluoro-3-oxo-2,5,6,7-tetrahydro-3H-pyrrolo[1,2-c]imidazol-6-yl}methanesulfonamide]
7 | 98 | CNS(=O)(=O)N[C@@H]1Cn2c(cn(-c3noc4ccc(F)c(-c5c(F)cc(F)cc5F)c34)c2=O)C1(F)F [Example 301, N-{(6R)-7,7-difluoro-2-[5-fluoro-4-(2,4,6-trifluorophenyl)-1,2-benzoxazol-3-yl]-3-oxo-2,5,6,7-tetrahydro-3H-pyrrolo[1,2-c]imidazol-6-yl}-N′-methylsulfuric diamide]
8 | 68 | CCS(=O)(=O)N[C@@H]1CN2C(=O)N(c3noc4cccc(N5CCCCC5)c34)CC[C@@H]2C1(F)F [Example 333, N-{(4aR,6R)-5,5-difluoro-1-oxo-2-[4-(piperidin-1-yl)-1,2-benzoxazol-3-yl]octahydropyrrolo[1,2-c]pyrimidin-6-yl}ethanesulfonamide]
9 | 94 | CCS(=O)(=O)N[C@H]1C[C@H]2CN(c3noc4c(C)ccc(-c5c(F)cccc5F)c34)C(=O)N2C1 [Example 30, N-{(6S,7aS)-2-[4-(2,6-difluorophenyl)-7-methyl-1,2-benzoxazol-3-yl]-3-oxohexahydro-1H-pyrrolo[1,2-c]imidazol-6-yl}ethanesulfonamide]
10 | 104 | CS(=O)(=O)N[C@@H]1Cn2c(cn(-c3noc4cc(Cl)c(F)c(-c5c(F)cccc5F)c34)c2=O)C1(F)F [Example 95, N-{(6R)-2-[6-chloro-4-(2,6-difluorophenyl)-5-fluoro-1,2-benzoxazol-3-yl]-7,7-difluoro-3-oxo-2,5,6,7-tetrahydro-3H-pyrrolo[1,2-c]imidazol-6-yl}methanesulfonamide]
11 | 96 | CCS(=O)(=O)N[C@@H]1Cn2c(cn(-c3noc4nc(C)cc(-c5c(F)cc(F)cc5F)c34)c2=O)C1(F)F [Example 190, N-{(6R)-7,7-difluoro-2-[6-methyl-4-(2,4,6-trifluorophenyl)[1,2]oxazolo[5,4-b]pyridin-3-yl]-3-oxo-2,5,6,7-tetrahydro-3H-pyrrolo[1,2-c]imidazol-6-yl}ethanesulfonamide]
12 | 91 | Cc1cc(-c2c(F)cccc2F)c2c(-n3cc4n(c3=O)C[C@@H](NS(C)(=O)=O)C4(F)F)noc2n1 [Example 118, N-{(6R)-2-[4-(2,6-difluorophenyl)-6-methyl[1,2]oxazolo[5,4-b]pyridin-3-yl]-7,7-difluoro-3-oxo-2,5,6,7-tetrahydro-3H-pyrrolo[1,2-c]imidazol-6-yl}methanesulfonamide]
13 | 99 | O=C1N(c2noc3cc(F)c(F)c(-c4c(F)cccc4F)c23)CC[C@H]2N1C[C@@H](NS(=O)(=O)CF)C2(F)F [Example 313, N-{(4aR,6R)-2-[4-(2,6-difluorophenyl)-5,6-difluoro-1,2-benzoxazol-3-yl]-5,5-difluoro-1-oxooctahydropyrrolo[1,2-c]pyrimidin-6-yl}-1-fluoromethanesulfonamide]
14 | 101 | CS(=O)(=O)N[C@@H]1CN2C(=O)N(c3noc4cc(Cl)c(F)c(-c5c(F)cccc5F)c34)C[C@@H]2C1(F)F [Example 107, N-{(6R,7aR)-2-[6-chloro-4-(2,6-difluorophenyl)-5-fluoro-1,2-benzoxazol-3-yl]-7,7-difluoro-3-oxohexahydro-1H-pyrrolo[1,2-c]imidazol-6-yl}methanesulfonamide]
15 | 105 | CCS(=O)(=O)N[C@@H]1CN2C(=O)N(c3noc4cc(C(F)F)cc(-c5c(F)cc(F)cc5F)c34)C[C@@H]2C1(F)F [Example 298, N-{(6R,7aR)-2-[6-(difluoromethyl)-4-(2,4,6-trifluorophenyl)-1,2-benzoxazol-3-yl]-7,7-difluoro-3-oxohexahydro-1H-pyrrolo[1,2-c]imidazol-6-yl}ethanesulfonamide]
16 | 110 | CS(=O)(=O)N[C@@H]1CN2C(=O)N(c3noc4nccc(-c5c(F)cc(F)cc5F)c34)CC[C@@H]2C1(F)F [Example 237, N-{(4aR,6R)-5,5-difluoro-1-oxo-2-[4-(2,4,6-trifluorophenyl)[1,2]oxazolo[5,4-b]pyridin-3-yl]octahydropyrrolo[1,2-c]pyrimidin-6-yl}methanesulfonamide]
17 | 97 | Cc1cc2onc(-n3cc4n(c3=O)CC(NS(C)(=O)=O)C(F)(F)C4)c2c(-c2c(F)cc(F)cc2F)n1 (single isomer, unassigned) [Example 289, N-{(6R*)-7,7-difluoro-2-[6-methyl-4-(2,4,6-trifluorophenyl)[1,2]oxazolo[4,5-c]pyridin-3-yl]-3-oxo-2,3,5,6,7,8-hexahydroimidazo[1,5-a]pyridin-6-yl}methanesulfonamide]
18 | 110 | CS(=O)(=O)N[C@H]1C[C@H]2CCN(c3noc4cccc(-c5c(F)cccc5F)c34)C(=O)N2C1 [Example 317, N-{(4aR,6S)-2-[4-(2,6-difluorophenyl)-1,2-benzoxazol-3-yl]-1-oxooctahydropyrrolo[1,2-c]pyrimidin-6-yl}methanesulfonamide]
19 | 105 | CCS(=O)(=O)N[C@@H]1Cn2c(cn(-c3noc4cccc(-c5c(F)cccc5F)c34)c2=O)C1(C)C [Example 70, N-{(6S)-2-[4-(2,6-difluorophenyl)-1,2-benzoxazol-3-yl]-7,7-dimethyl-3-oxo-2,5,6,7-tetrahydro-3H-pyrrolo[1,2-c]imidazol-6-yl}ethanesulfonamide]
20 | 104 | COc1cc(-c2c(F)cc(F)cc2F)c2c(N3CC[C@H]4N(C[C@@H](NS(C)(=O)=O)C4(F)F)C3=O)noc2n1 [Example 294, N-{(4aR,6R)-5,5-difluoro-2-[6-methoxy-4-(2,4,6-trifluorophenyl)[1,2]oxazolo[5,4-b]pyridin-3-yl]-1-oxooctahydropyrrolo[1,2-c]pyrimidin-6-yl}methanesulfonamide]
21 | 104 | Cc1cc2onc(N3CC[C@H]4N(C[C@@H](NS(=O)(=O)C5CC5)C4(F)F)C3=O)c2c(-c2c(F)cccc2F)n1 [Example 268, N-{(4aR,6R)-2-[4-(2,6-difluorophenyl)-6-methyl[1,2]oxazolo[4,5-c]pyridin-3-yl]-5,5-difluoro-1-oxooctahydropyrrolo[1,2-c]pyrimidin-6-yl}cyclopropanesulfonamide]
22 | 99 | CCS(=O)(=O)N[C@@H]1CN2C(=O)N(c3noc4cc(Cl)c(F)c(-c5c(F)cccc5F)c34)C[C@@H]2C1(F)F [Example 79, N-{(6R,7aR)-2-[6-chloro-4-(2,6-difluorophenyl)-5-fluoro-1,2-benzoxazol-3-yl]-7,7-difluoro-3-oxohexahydro-1H-pyrrolo[1,2-c]imidazol-6-yl}ethanesulfonamide]
23 | 102 | CS(=O)(=O)N[C@@H]1CN2C(=O)N(c3noc4cc(F)cc(-c5c(F)cc(F)cc5F)c34)CC[C@@H]2C1(F)F [Example 208, N-{(4aR,6R)-5,5-difluoro-2-[6-fluoro-4-(2,4,6-trifluorophenyl)-1,2-benzoxazol-3-yl]-1-oxooctahydropyrrolo[1,2-c]pyrimidin-6-yl}methanesulfonamide]
